Test results: patent publication US6344477B1, “Prostaglandin e agonists for treatment of dry eye” (Alcon Manufacturing, Ltd., priority 1998, dated 2002)

Assays:
[1] = molecular target: T1, EP2 Receptors in Immortalized Human Non-pigmented Ciliary Epithelial Cells (Homo sapiens, UniProt P43116); assay: cAMP production (radioimmunoassay) via EP2 receptors in immortalized human non-pigmented ciliary epithelial cells; assay type: cell-based; settings: for EC50: cAMP production, 15-60 min at 23° C., read-out: Potency (EC50, nM) at EP2 Receptors in Immortalized Human Non-pigmented Ciliary Epithelial Cells
T1 construct: Immortalized human non-pigmented ciliary epithelial cells (containing EP2 receptors); endogenous in cells; host or cells: immortalized human non-pigmented ciliary epithelial cells
Method: (§1) Immortalized human non-pigmented ciliary epithelial cells (containing EP2 receptors) and Chinese hamster ovary cells (containing EP4 receptors) were stimulated with various prostaglandins for 15-60 min at 23° C. The cAMP produced by receptor activation was determined by a specific radioimmunoassay as previously described (Sharif et. al., Pharmacological analysis of mast cell mediator and neurotransmitter receptors coupled to adenylate cyclase and phospholipase C on immunocytochemically-defined human conjunctival epithelial cells, J. Ocular Pharmacology & Therapeutics, 13:321-336 (1997); Crider et. al., Prostaglandin-stimulated adenylyl cyclase activity via a pharmacologically-defined EP2 receptor in human non-pigmented epithelial cells, J. Ocular Pharmacology & Therapeutics, 14:293-304 (1998); Crider et. al., Use of a semi-automated, robotic radioimmunoassay to measure cAMP generated by activation of DP-, EP2- and IP-prostaglandin receptors in human ocular and other cell-types, Prostaglandins, Leukotrienes & Fatty Acids, 59:77-82 (1998); Milne et. al., Human monocytes and cultured Chinese hamster ovary cells express EP4 receptors positively coupled to adenylate cyclase, Br. J. Pharmacology, 113 (supplement), 8p, (1994)).

[2] = molecular target: T2, EP4 Receptors in Chinese Hamster Ovary Cells (Cricetulus griseus, UniProt A0A061ILF4); assay: cAMP production (radioimmunoassay) via EP4 receptors in Chinese hamster ovary cells; assay type: cell-based; settings: 15-60 min at 23° C.; for EC50: read-out: Potency (EC50, nM) at EP4 Receptors in Chinese Hamster Ovary Cells
T2 construct: Chinese hamster ovary cells (containing EP4 receptors); endogenous in cells; host or cells: Chinese hamster ovary cells
Method: as §1

T2 sequence (A0A061ILF4 1-488): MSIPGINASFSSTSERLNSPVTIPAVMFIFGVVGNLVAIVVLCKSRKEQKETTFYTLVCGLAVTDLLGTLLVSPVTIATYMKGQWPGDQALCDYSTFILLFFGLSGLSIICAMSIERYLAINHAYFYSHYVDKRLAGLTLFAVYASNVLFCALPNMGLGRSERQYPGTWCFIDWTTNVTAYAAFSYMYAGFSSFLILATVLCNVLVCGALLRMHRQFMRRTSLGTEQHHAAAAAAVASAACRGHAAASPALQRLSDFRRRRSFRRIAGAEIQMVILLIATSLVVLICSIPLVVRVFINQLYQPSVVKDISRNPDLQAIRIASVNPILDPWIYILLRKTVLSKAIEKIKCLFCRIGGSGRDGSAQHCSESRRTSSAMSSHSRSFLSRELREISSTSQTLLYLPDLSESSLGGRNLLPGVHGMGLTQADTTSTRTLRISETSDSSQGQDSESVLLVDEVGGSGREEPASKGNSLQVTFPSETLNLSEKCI
T1 sequence (P43116 whole entry): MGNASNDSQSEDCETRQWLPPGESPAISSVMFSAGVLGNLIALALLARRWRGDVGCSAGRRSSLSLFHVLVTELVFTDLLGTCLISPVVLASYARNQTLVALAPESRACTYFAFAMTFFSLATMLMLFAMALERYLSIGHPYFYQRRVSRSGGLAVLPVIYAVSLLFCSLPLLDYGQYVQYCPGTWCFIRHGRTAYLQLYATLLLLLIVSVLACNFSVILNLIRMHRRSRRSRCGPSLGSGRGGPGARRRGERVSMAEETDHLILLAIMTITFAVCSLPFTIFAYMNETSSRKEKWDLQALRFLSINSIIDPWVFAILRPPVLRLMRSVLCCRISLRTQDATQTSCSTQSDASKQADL

EC50 [2] [nM]	Efficacy at EP4 Receptors in Chinese Hamster Ovary Cells [2] [%]	Structure (SMILES)	EC50 [1] [nM]	Receptor selectivity EP2 versus EP4 ([1]; comparison of EC50 at EP2 and EP4 receptors)
176		CCCCC(C)(C)[C@H](O)/C=C/[C@H]1CCC(=O)[C@@H]1C/C=C\CCCC(=O)O [11-deoxy-16,16-dimethyl-PGE2, 11-deoxy-16,16,-dimethyl-PGE2]	739	
38	86	CCCCC[C@H](O)/C=C/[C@H]1CCC(=O)[C@@H]1CCCCCCC(=O)O [11-deoxy-PGE1]	500	
31		CCCCC(C)(C)[C@H](O)/C=C/[C@H]1[C@H](O)CC(=O)[C@@H]1C/C=C\CCCC(=O)O [16,16-dimethyl-PGE2]	686	
> 10000		CCCC1([C@H](O)C/C=C/[C@H]2[C@H](O)CC(=O)[C@@H]2CCCCCCC(=O)OC)CCC1 [Butaprost, reference compound]	212	more EP2-selective
